Blank lines part the entries; values can stand above or below the molecule they belong to. Where a SMILES comes first, the peptide text is derived from it. [ ]: non-standard residue; d: D form. The star is where a group is joined. Phe(4-Br) = N[C@@H](Cc1ccc(Br)cc1)C(=O)O; PEG6 = NCCOCCOCCOCCOCCOCCOCCC(=O)O; NMeL = CN[C@@H](CC(C)C)C(=O)O; Nle = CCCC[C@H](N)C(=O)O; Cbz = O=C(OCc1ccccc1)*; Aib = CC(C)(N)C(=O)O
Tests used:
[1] = tested on: wild-type male mice (C57BL/6); assay: Blood pressure lowering assay in anesthetized mice; type: in vivo, mouse
Procedure: The metabolically stable apelin analogues from each isoform, CbzPEG6–NMeLeu17A2 and NMeLeu13A2 along with the small molecule agonist, BMS-986224 (0.5 μmol kg^−1 infusion during 5 min for each compound), were tested for their BP lowering activity in anesthetized wild-type male mice (C57BL/6, 24–30 g). […] In contrast, the hypotensive effect of CbzPEG6–NMeLeu17A2 was observed immediately after infusion. This analogue reduced mean arterial pressure (MAP) by approximately 50% during the experiment, with the effect sustained for more than 30 minutes post-administration. Apelin can act on the endothelial layer of vasculature, leading to systemic changes in blood pressure by increasing the synthesis of nitric oxide (NO).[5] The effect of CbzPEG6–NMeLeu17A2 on […], which decreases the […] resistance by increasing eNOS activation and NO production through the activation of the PI3K/Akt signalling pathway on endothelial cells like other apelin analogues we tested in the previous studies.[5,11]
The blood pressure measurement and apelin injection method has been described in our previous research.[43] During the blood pressure testing, mice aged 12–14 weeks were anesthetized with 1.5% isoflurane in oxygen and monitored throughout the experiment. The blood pressure was measured using a PV loop catheter (model 1.2F, Transonic) […] into the left carotid artery. The monitor system (LabScribe 2.0. Scisense) recorded aortic blood pressure and heart rate. After a 20-minute baseline measurement, CbzPEG6–NMeLeu17A2, NMeLeu13A2, RI13, RI13A2, RI17, RI17A2, and BMS-986224 (0.5 μmol […] body weight) were diluted in saline and consistently infused for 5 min via the right jugular vein. For BMS-986224, 0.1% DMSO was added to saline to help with dilution. Blood pressure was continuously recorded for 60 minutes post-infusion.
3. Effects of APJ agonists on blood pressure
Figure S3. Different effects of apelin analog and receptor agonist on blood pressure and ischemia-reperfusion injury. A) the effect of CbzPEG6–NMeLeu17A2 (n=3) on mean arterial blood pressure (MAP), B) the effect of apelin 13 analog, NMeLeu13A2, on MAP (n=4). The effect of apelin 13 analog reverse enantiomers, C) RI13 (n=4) and D) RI13A2 (n=4), on MAP. The effect of apelin 17 reverse enantiomers, E) RI17 (n=4) and F) RI17A2 (n=4) on MAP. G) The effect of small molecule apelin receptor agonist BMS-986224 on blood pressure (n=4). The MAP recording between 50 and 60 minutes has been averaged and compared with their controls (placebo (n=4)). The vehicle for BMS-986224 is 0.1% DMSO (n=3). The arrow indicates the time when analogs were introduced. Values mean ±SEM and ****P<0.0001, compared to the control group.
(1 picture or pasted object on this page, not shown here)

[2] = tested on: isolated mouse heart (ischemia–reperfusion injury); assay: Ex vivo Langendorff heart perfusion with ischemia–reperfusion
phospho-Akt (Ser473) = assay: Western blot of Akt phosphorylation in left ventricular tissue after Langendorff ischemia–reperfusion; set-up: species or system mouse; conditions: n = 6 per group
Procedure: (§1) Fig. 4 Phosphorylation of Akt and ERK1/2 in left ventricular tissue following ischemia–reperfusion (IR) and treatment with apelin analogues. Protein lysates were analyzed by Western blotting and band intensities quantified by densitometry. (A) Representative Western blots for phosphorylated Akt (p-Akt, Ser473), total Akt, phosphorylated ERK1/2 (p-ERK1/2, Thr202/Tyr204), and total ERK1/2. (B) Quantification of p-Akt/Akt. (C) Quantification of p-ERK1/2/ERK1/2. Data are expressed in arbitrary units relative to aerobic perfusion (control) and presented as mean ± SEM (n = 6 per group). Statistical analysis was performed using one-way ANOVA with Tukey's multiple comparisons test. Symbol key: *p < 0.05 vs. aerobic perfusion; **p < 0.05 vs. aerobic perfusion and placebo; ***p < 0.05 vs. all other groups.
(§2) Protein expression was assessed by Western blot analysis. Left ventricular tissue samples from mice in the Langendorff protocol were homogenized in RIPA buffer supplemented with protease and phosphatase inhibitors (Thermo Fisher Scientific, Waltham, MA, USA). Lysates were cleared by centrifugation at 12 000 × g for 15 min at 4 °C, and protein concentration was determined by the BCA assay (Pierce, Thermo Fisher Scientific, Waltham, MA, USA). Equal amounts of protein (20 μg per lane) were separated on 10% SDS-polyacrylamide gels and transferred to polyvinylidene difluoride (PVDF) membranes (Immobilon-P, MilliporeSigma, Burlington, MA, USA). Membranes were blocked for 1 h at room temperature in 5% bovine serum albumin (BSA) prepared in Tris-buffered saline with 0.1% Tween-20 (TBST) and incubated overnight at 4 °C with the following primary antibodies (all from Cell Signaling Technology, Danvers, MA, USA): phospho-Akt (Ser473; #4060), total Akt (#2920), phospho-ERK1/2 (Thr202/Tyr204; #9101), and total ERK1/2 (#4696), each diluted 1 : 1000 in blocking buffer. […] Band intensities were quantified using ImageJ software (National Institutes of Health, Bethesda, MD, USA), and phosphorylated protein levels were normalized to their corresponding total protein.

[3] = tested on: phospho-ERK1/2 (Thr202/Tyr204); assay: Western blot of ERK1/2 phosphorylation in left ventricular tissue after Langendorff ischemia–reperfusion; set-up: species or system mouse; conditions: n = 6 per group
Procedure: as §1, §2

[4] = cited from earlier work
From the text: The apelinergic system is a regulator in cardiovascular function and has shown positive effects on myocardial contractility, vasodilation,[4,5] angiogenesis[6] and heart rate.[7] Apelin promotes vasodilation by stimulating nitric oxide (NO) production, with apelin potentiating phosphorylation of Akt and eNOS,[5,8] while its signalling through Akt and ERK pathways also helps regulate cardiac contractility and provides protection against cardiac hypertrophy.[9] Apelin peptide hormones are derived from a 77-residue pre-propeptide and exist as three major isoforms, differentiated by their length, ...

rats = conditions: MI rat model; hypertension-induced cardiac dysfunction rat model; cited from earlier work
From the text: Another avenue being investigated is the use of small molecule as agonists for the apelinR, such as, Bristol Myers Squibb's BMS-986224,[26,27] Amgen's AMG986,[28] and Davenport's CMF-019.[29] […] In contrast, the two non peptidic apelinR agonists, BMS-98622 ...

apelinR / human Gαi1 = molecular target: T1, apelinR / human Gαi1 (Homo sapiens, UniProt P35414); assay: ebBRET Gαi1 activation; type: cell-based; conditions: HEK293 cells transfected with apelinR, human Gαi1, Rap1GAP-RlucII, rGFP-CAAX; 10 min at 37 °C; mean ± SEM of 5 to 6 independent experiments; read-out: Gαi1 activation log EC50 (converted)
T1 sequence (P35414 1-380): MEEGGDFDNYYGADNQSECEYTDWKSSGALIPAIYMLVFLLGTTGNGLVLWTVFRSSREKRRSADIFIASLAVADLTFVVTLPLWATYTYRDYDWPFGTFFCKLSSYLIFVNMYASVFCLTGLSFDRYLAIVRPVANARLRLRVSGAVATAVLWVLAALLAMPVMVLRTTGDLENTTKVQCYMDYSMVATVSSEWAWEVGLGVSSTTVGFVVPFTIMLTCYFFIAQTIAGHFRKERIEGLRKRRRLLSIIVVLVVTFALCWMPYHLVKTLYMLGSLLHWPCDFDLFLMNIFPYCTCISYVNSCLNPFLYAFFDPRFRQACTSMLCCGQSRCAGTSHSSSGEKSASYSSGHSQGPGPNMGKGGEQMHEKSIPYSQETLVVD

apelinR / human Gαi2 = molecular target: T2, apelinR / human Gαi2 (Homo sapiens, UniProt P35414); assay: ebBRET Gαi2 activation; type: cell-based; conditions: HEK293 cells transfected with apelinR, human Gαi2, Rap1GAP-RlucII, rGFP-CAAX; 10 min at 37 °C; mean ± SEM of 5 to 6 independent experiments; read-out: Gαi2 activation log EC50 (converted)
T2 sequence (P35414 1-380): T1 sequence (P35414 1-380)

apelinR / β-arrestin1 = molecular target: T3, apelinR / β-arrestin1 (Homo sapiens, UniProt P35414); assay: ebBRET β-arrestin1 recruitment; type: cell-based; conditions: HEK293 cells transfected with apelinR, β-arrestin1-RlucII, rGFP-CAAX; 10 min at 37 °C; mean ± SEM of 5 to 6 independent experiments; read-out: β-arr1 recruitment log EC50 (converted)
T3 sequence (P35414 1-380): T1 sequence (P35414 1-380)

apelinR / β-arrestin2 = molecular target: T4, apelinR / β-arrestin2 (Homo sapiens, UniProt P35414); assay: ebBRET β-arrestin2 recruitment; type: cell-based; conditions: HEK293 cells transfected with apelinR, β-arrestin2-RlucII, rGFP-CAAX; 10 min at 37 °C; mean ± SEM of 5 to 6 independent experiments; read-out: β-arr2 recruitment log EC50 (converted)
T4 sequence (P35414 1-380): T1 sequence (P35414 1-380)

EC50 (apelinR / human Gαi1): 0.0339 nM
EC50 (apelinR / human Gαi2): 0.0219 nM
EC50 (apelinR / β-arrestin1): 1.23 nM
EC50 (apelinR / β-arrestin2): 1.15 nM
Structure (SMILES): CCCC[C@H](NC(=O)[C@@H]1CCCN1C(=O)CNC(=O)[C@H](CCCCN)NC(=O)[C@H](Cc1c[nH]cn1)NC(=O)[C@H](CO)NC(=O)[C@H](CC(C)C)N(C)C(=O)[C@H](CCCNC(=N)N)NC(=O)[C@@H]1CCCN1C(=O)[C@H](CCCNC(=N)N)NC(=O)[C@@H]1CCC(=O)N1)C(=O)NC(C)(C)C(=O)N[C@@H](Cc1ccc(Br)cc1)C(=O)O [NMeLeu13A2]
half-life in human plasma [4]: ~4 h

EC50 (apelinR / human Gαi1): 1070 nM
EC50 (apelinR / human Gαi2): 1150 nM
Structure (SMILES): CSCC[C@H](NC(=O)[C@@H]1CCCN1C(=O)CN)C(=O)N1CCC[C@H]1C(=O)N[C@@H](Cc1ccccc1)C(=O)O [apelin-5-mer C-terminal] (H-GPMPF-OH)

EC50 (apelinR / human Gαi1): 490 nM
EC50 (apelinR / human Gαi2): 347 nM
Structure (SMILES): CSCC[C@H](NC(=O)[C@@H]1CCCN1C(=O)CNC(=O)[C@H](CCCCN)NC(=O)[C@H](Cc1c[nH]cn1)NC(=O)[C@@H](N)CO)C(=O)N1CCC[C@H]1C(=O)N[C@@H](Cc1ccccc1)C(=O)O [apelin 8-mer C-terminal] (H-SHKGPMPF-OH)

The next lines start with the molecule.

Structure (SMILES): CCCC[C@H](NC(=O)[C@@H]1CCCN1C(=O)CNC(=O)[C@H](CCCCN)NC(=O)[C@H](Cc1c[nH]cn1)NC(=O)[C@H](CO)NC(=O)[C@H](CC(C)C)N(C)C(=O)[C@H](CCCNC(=N)N)NC(=O)[C@@H]1CCCN1C(=O)[C@H](CCCNC(=N)N)NC(=O)[C@H](CCC(N)=O)NC(=O)[C@H](CCCNC(=N)N)NC(=O)[C@H](CCCNC(=N)N)NC(=O)[C@H](Cc1ccccc1)NC(=O)[C@H](CCCCN)NC(=O)CCOCCOCCOCCOCCOCCOCCNC(=O)OCc1ccccc1)C(=O)NC(C)(C)C(=O)N[C@@H](Cc1ccc(Br)cc1)C(=O)O [CbzPEG6–NMeLeu17A2] ({Cbz-PEG6}-KFRRQRPR[NMeL]SHKGP[Nle][Aib][Phe(4-Br)]-OH; C-terminus assumed)
duration of hypotensive effect post-administration ([1]; 0.5 μmol kg^−1 infusion during 5 min, anesthetized C57BL/6 mice): more than 30 minutes
reduction of mean arterial pressure (MAP) ([1]; 0.5 μmol kg^−1 infusion during 5 min, anesthetized C57BL/6 mice, n = 3): approximately 50%
hypotensive effect (BP lowering activity, in words) ([1]; 0.5 μmol kg^−1 infusion during 5 min via jugular vein, anesthetized wild-type male C57BL/6 mice, compared to vehicle control): significant hypotensive effect
cardioprotective effect / cardiac function recovery after ischemia–reperfusion (LVDP, RPP, max dP/dt, min dP/dt; in words) ([2]; 1 μM in perfusion buffer for first 10 min of reperfusion after 30 min ischemia, compared to placebo, one-way ANOVA, Dunnett): significant cardioprotective effect and positive inotropic effect
cardiac recovery compared to the placebo treatment (left ventricle contractility, diastolic and systolic function) ([2]; 1 μM, 30 min ischemia, 40 min reperfusion, n = 7): nearly doubled
Akt phosphorylation (p-Akt/Akt), mean difference relative to control (phospho-Akt (Ser473); left ventricular tissue after IR and 1 μM treatment, arbitrary units relative to aerobic perfusion (control), both p < 0.0001): −8.857
Akt phosphorylation (p-Akt/Akt), mean difference versus NMeLeu13A2 (phospho-Akt (Ser473); left ventricular tissue after IR, arbitrary units, p < 0.001): −4.018
Akt phosphorylation compared with IR (in words) (phospho-Akt (Ser473); left ventricular tissue after IR, one-way ANOVA, Tukey): robust enhancement
ERK1/2 phosphorylation (p-ERK1/2/ERK1/2), mean difference versus NMeLeu13A2 ([3]; left ventricular tissue after IR, arbitrary units, p < 0.0001): −1.991
ERK1/2 phosphorylation compared with control (in words) ([3]; left ventricular tissue after IR, p < 0.01 (NMeLeu13A2), p < 0.0001 (CbzPEG6–NMeLeu17A2)): significantly increased ERK1/2 phosphorylation
ERK1/2 activation relative to IR (in words) ([3]; p < 0.0001): significant increase in ERK1/2 activation
t1/2 in human plasma [4]: > 18 h

Structure (SMILES): COc1cccc(OC)c1-n1c(NS(=O)(=O)[C@@H](C)[C@@H](OC(C)C)c2ncc(C)cn2)nnc1-c1cncc(C)c1 [AM-812337]
change in BP in a myocardial infarction (MI) rat model and a hypertension-induced cardiac dysfunction rat model (in words) (rats): do not induce any change in BP
